Each structure is given as a SMILES string.

Chain of IL-1β secretion of THP-1 cells (Q96P20 whole entry): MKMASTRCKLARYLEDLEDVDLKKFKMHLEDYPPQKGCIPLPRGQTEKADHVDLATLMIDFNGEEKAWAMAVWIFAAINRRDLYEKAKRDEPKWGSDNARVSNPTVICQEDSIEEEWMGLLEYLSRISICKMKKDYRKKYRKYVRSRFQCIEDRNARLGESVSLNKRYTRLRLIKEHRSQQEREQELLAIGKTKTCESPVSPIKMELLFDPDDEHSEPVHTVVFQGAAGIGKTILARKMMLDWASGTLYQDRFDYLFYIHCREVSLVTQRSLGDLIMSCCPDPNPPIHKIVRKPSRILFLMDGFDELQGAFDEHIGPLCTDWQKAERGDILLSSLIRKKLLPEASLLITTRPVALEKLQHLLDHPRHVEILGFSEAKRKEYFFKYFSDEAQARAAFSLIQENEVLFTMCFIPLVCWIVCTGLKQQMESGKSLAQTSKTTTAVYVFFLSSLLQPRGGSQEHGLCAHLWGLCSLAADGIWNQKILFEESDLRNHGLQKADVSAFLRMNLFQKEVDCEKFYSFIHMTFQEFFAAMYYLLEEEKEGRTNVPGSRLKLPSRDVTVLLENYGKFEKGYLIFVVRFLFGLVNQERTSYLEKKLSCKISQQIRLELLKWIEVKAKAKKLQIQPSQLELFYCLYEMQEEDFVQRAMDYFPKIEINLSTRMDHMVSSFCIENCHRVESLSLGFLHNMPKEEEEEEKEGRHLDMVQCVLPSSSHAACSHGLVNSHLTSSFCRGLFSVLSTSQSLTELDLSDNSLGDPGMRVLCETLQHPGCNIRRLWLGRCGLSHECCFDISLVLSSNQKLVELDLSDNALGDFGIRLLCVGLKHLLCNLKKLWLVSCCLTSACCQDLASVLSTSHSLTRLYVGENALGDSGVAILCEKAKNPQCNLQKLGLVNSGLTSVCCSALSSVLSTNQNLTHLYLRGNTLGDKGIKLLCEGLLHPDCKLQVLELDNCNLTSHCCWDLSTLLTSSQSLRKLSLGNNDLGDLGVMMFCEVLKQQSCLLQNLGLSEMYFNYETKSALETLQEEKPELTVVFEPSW

The first data set concerns the target IL-1β secretion of THP-1 cells (Homo sapiens, UniProt Q96P20). Briefly: Effect of NLRP3 inhibitor on IL-1β secretion of THP-1 cells (AlphaLISA). It counts as cell-based. As to conditions: PMA 50nM, LPS 100ng/ml, Nigericin 10µM, IL-1β in supernatant. The protocol: This experiment used the PerkinElmer AlphaLISA_human_IL1β kit (AL220 C/F). The detection buffer was RPMI-1640+10FBS. AlphaLISA Immunoassay Buffer, AlphaLISA Anti-IL1β Acceptor beads, Streptavidin (SA)-coated Donor beads, and Biotinylated Antibody Anti-IL1β were all included in the kit.
The density of THP1 cells was adjusted to 4×10^5 cells/mL, PMA (final concentration 50nM) was added, inoculated into 96-well flat-bottom plates at 200µL/well, and stimulated overnight at 37°C, 5% CO2 (try to <16h). The next day, the supernatant was discarded, and the flat washed twice with DPBS (200µL/time). Then LPS solution (final concentration of 100ng/ml) was added at 198µL/well , incubated at 37°C, 5% CO2 for 3h. 1µL of the corresponding concentration of compounds was added to each well according to the experimental MAP, incubated at 37°C, 5% CO2 for 1h. 1µL Nigericin (final concentration of 10µM) was added to each well, incubated overnight at 5% CO2 (>18h). On the third day, 5µL of supernatant was taken, diluted 20 times, and the content of IL-Iβ in the supernatant was detected by Human Interleukin 1 beta (IL1β) Kit. Envision was used to read the AlphaLISA test value of Ex = 680/ Em = […]. GraphPad Prism 9.5.0 was used to analyze the data, and the IC50 value of the compound for IL-Iβ antagonism was fitted by four-parameter Logistic. […] Table 2: Results of IC50 experiments using THP-1 cells to detect NLRP3 inhibitors
In general terms: Bead proximity is the source of the signal in Alpha formats.
As a reminder, the IC50 is the concentration at which inhibition is half-maximal. Higher therefore signals weaker potency in that assay. As to `CCN1CCC[C@@H](n2ccc3cc(-c4c(C)cc(C(F)(F)F)cc4O)nnc32)C1` [11-a], the IC50 is under 50 nM.

`CCN1CCC[C@@H](N2CC(=O)Nc3cc(-c4c(C)cc(C(F)(F)F)cc4O)nnc32)C1` [12-a] had an IC50 of under 50 nM.

Turning to `Cc1cc(C(F)(F)F)cc(O)c1-c1ccc2[nH]c(NCC(C)(C)O)nc2n1` [Compound 6], the IC50 was in the range of 100 to 500 nM.

In turn, `Cc1cc(C(F)(F)F)cc(O)c1-c1ccc2oc(N3CCOC[C@H]3C)nc2n1` [compound 371] displayed an IC50 of 50 to 100 nM.

With `Oc1cc(Cl)cc(O)c1-c1ccc2oc(N3CCOCC3)nc2n1` [compound 376], the IC50 is under 50 nM.

As for `Cc1cc(C(F)(F)F)cc(O)c1-c1ccc2oc(N3CC4CCC(C3)O4)nc2n1` [compound 381], the IC50 was in the range of 100 to 500 nM.

With `Cc1cc(C(F)(F)F)cc(O)c1-c1ccc2oc(N3CCS(=O)(=O)CC3)nc2n1` [compound 384], the IC50 was under 50 nM.

In the case of `Cc1cc(Cl)cc(O)c1-c1ccc2oc(N3CCS(=O)(=O)CC3)nc2n1` [compound 387], the IC50 lay within 50 to 100 nM.

Molecule `CCS(=O)(=O)N1CCN(c2nc3nc(-c4c(C)cc(C(F)(F)F)cc4O)ccc3o2)CC1` [compound 388] showed an IC50 of 50 to 100 nM.

Molecule `Cc1cc(C(F)(F)F)cc(O)c1-c1ccc2oc(N3CCN(S(C)(=O)=O)CC3)nc2n1` [compound 390] yielded an IC50 of under 50 nM.

In turn, `Cc1cc(C(F)(F)F)cc(O)c1-c1ccc2oc(N3CCN(S(=O)(=O)C4CC4)CC3)nc2n1` [compound 392] came in with an IC50 of under 50 nM.

On to `CCS(=O)(=O)N1CCN(c2nc3nc(-c4c(C)cc(C(F)(F)F)cc4O)ccc3o2)C[C@@H]1C` [compound 394], for which the IC50 was in the range of 50 to 100 nM.

Molecule `CCN1C[C@H](F)C[C@@H](Nc2nc3nc(-c4c(C)cc(C(F)(F)F)cc4O)ccc3o2)C1` [compound 397] gave an IC50 of 100 to 500 nM.

As to `Cc1cc(C(F)(F)F)cc(O)c1-c1ccc2oc(N[C@@H]3CCCN(C4CC4)C3)nc2n1` [compound 399], the IC50 was under 50 nM.

The molecule `Cc1cc(C(F)(F)F)cc(O)c1-c1ccc2oc(N[C@@H]3CCCN(C(C)C)C3)nc2n1` [compound 400] showed an IC50 of under 50 nM.

For `Cc1cc(C(F)(F)F)cc(O)c1-c1ccc2oc(N[C@@H]3CCCN(CCO)C3)nc2n1` [compound 404], the IC50 was under 50 nM.

The molecule `Cc1cc(C(F)(F)F)cc(O)c1-c1ccc2oc(NC[C@@H](C)O)nc2n1` [compound 413] registered a concentration for half-maximal inhibition (IC50) of 50 to 100 nM.

With `Cc1cc(C(F)(F)F)cc(O)c1-c1ccc2nc(N3CCS(=O)(=O)CC3)nn2n1` [compound 422], the IC50 lay within 100 to 500 nM.

Molecule `Cc1cc(C(F)(F)F)cc(O)c1-c1ccc2nc(N3CCOCC3)nn2n1` [compound 423] came in with an IC50 of 100 to 500 nM.

Molecule `Cc1cc(C(F)(F)F)cc(O)c1-c1cc(C)c2nc(N3CCOCC3)nn2n1` [compound 424] showed an IC50 of under 50 nM.

For the molecule `Cc1cc(C(F)(F)F)cc(O)c1-c1ccn2nc(N3CCOCC3)nc2n1` [compound 426], the IC50 was under 50 nM.

Molecule `CCN1CCC[C@@H](Nc2nc3ccc(-c4c(C)cc(C(F)(F)F)cc4O)nn3n2)C1` [compound 439] gave an IC50 of under 50 nM.

Take `Cc1cc(C(F)(F)F)cc(O)c1-c1cc(C)n2nc(N3CCOCC3)nc2n1` [compound 440]: the IC50 was in the range of 50 to 100 nM.

In the case of `CC(=O)NC[C@@H]1COCCN1c1nc2nc(-c3c(C)cc(C(F)(F)F)cc3O)cc(C)n2n1` [compound 441], the IC50 was under 50 nM.

`CC(=O)NC[C@@H]1COCCN1c1nc2c(C)cc(-c3c(C)cc(C(F)(F)F)cc3O)nn2n1` [compound 442] had a concentration for half-maximal inhibition (IC50) of under 50 nM.

The molecule `Cc1cc(C(F)(F)F)cc(O)c1-c1cc(C)n2nc(N[C@@H]3CCCN(C)C3)nc2n1` [compound 443] gave an IC50 of under 50 nM.

For `Cc1cc(C(F)(F)F)cc(O)c1-c1ccn2nc(N[C@@H]3CCCN(C)C3)nc2n1` [compound 444], the half-maximal inhibitory concentration (IC50) is under 50 nM.

In turn, `Cc1cc(C(F)(F)F)cc(O)c1-c1ccc2nc(N[C@@H]3CCCN(C)C3)nn2n1` [compound 445] displayed an IC50 of under 50 nM.

For `Cc1cc(C(F)(F)F)cc(O)c1-c1cc(C)c2nc(N[C@@H]3CCCN(C)C3)nn2n1` [compound 446], the IC50 is under 50 nM.

In turn, `CCN1CCC[C@@H](Nc2nc3c(C)cc(-c4c(C)cc(C(F)(F)F)cc4O)nn3n2)C1` [compound 447] registered an IC50 of under 50 nM.

`CCN1CCC[C@@H](Nc2nc3nc(-c4c(C)cc(C(F)(F)F)cc4O)ccn3n2)C1` [compound 448] showed an IC50 of under 50 nM.

The molecule `Cc1cc(C(F)(F)F)cc(O)c1-c1cc(C)n2nc(N[C@H]3CCCN(CCO)C3)nc2n1` [compound 460] gave an IC50 of under 50 nM.

As to `CCN1CCC[C@H](Nc2nc3nc(-c4c(C)cc(C(F)(F)F)cc4O)cc(C)n3n2)C1` [compound 462], the IC50 is under 50 nM.

System in another data set: not listed separately
Briefly: Liver microsome metabolic stability, mouse. It counts as in vitro ADME, mice. To be noted: mouse (m) liver microsomes 0.5 mg/ml, 45 min; read-out: LMS (h,r,m) (% rem, 45 min). The protocol: (§1) Purpose: This experiment investigates the metabolic stability of the compound in liver microsomes of different species such as humans, mice and rats, and the residual content of the test compound after incubation with liver microsomes of different species such as humans, mice and rats.
(§2) Preparation of 500 µM solution of target compound and positive control: 5 µL of each 10 mM stock solution was taken, added to 95 µL acetonitrile, and mixed for 30 s;
(§3) Preparation of 6 mM NADPH solution: 100 mM Stock aliquot liquid was diluted with Mg-Mg-K-Buffer.
(§4) • 2.1.1 Liver microsome solution: 18.75 µL of 20 mg/mL HLM, RLM, MLM, DLM, MOLM (final concentration: 0.5 mg/ml) were taken and placed them in each well of a 96-well plate; • 2.1.2 1.5 µL of 500 µM solution of each compound was added respectively; • 2.1.3 479.8 µL of phosphate buffer was taken, then added to each compound well, and mixed at 1000 rpm in an oscillating mixer for 10 s.
(§5) 30 µL of the above samples were taken and aliquoted to a new 96-well plates respectively (including NADPH group, n=2, and no NADPH group at 0 and 45 min, n=1), marked as 0, 5, 15, 30 and 45 min; […]
(§6) The slope was calculated based on the LN value of the compound concentration percentage and time as the coordinate axis, and the residual content of the compound after incubation with liver microsomes was calculated based on the slope and formula. […]
Turning to `CC(=O)N1CCOC[C@H]1CNc1nc2nc(-c3c(C)cc(C(F)(F)F)cc3O)ccc2o1` [Compound 111], the remaining at 0.75 h, 1 µM was determined as 91.3%.

System in a further data set: not listed separately
Put plainly: Liver microsome metabolic stability, rat. The class given is in vitro ADME, rats. To be noted: rat (r) liver microsomes 0.5 mg/ml, 45 min; read-out: LMS (h,r,m) (% rem, 45 min). The protocol:
as §1, §2, §3, §4, §5, §6
(In general: Liver microsomes are vesicles of endoplasmic reticulum, rich in cytochrome P450 enzymes.)
For the molecule `CC(=O)N1CCOC[C@H]1CNc1nc2nc(-c3c(C)cc(C(F)(F)F)cc3O)ccc2o1` [Compound 111], the remaining at 0.75 h, 1 µM worked out at 82.5%.

Another data set has as its system iodoacetic acid (MIA)-induced SD rat knee osteoarthritis model. Briefly: Efficacy on iodoacetic acid-induced SD rat knee osteoarthritis model. It counts as in vivo, SD rats. As to conditions: 30mg/kg orally once a day from Day 7 to Day 42. Here is the method: Purpose: Evaluate the efficacy of MCC950 (Positive reference compound) and compound 111 of the present invention on iodoacetic acid (MIA)-induced SD rat knee osteoarthritis model. Experimental materials: Experimental male SD rats, 4 weeks old. Model induction began after the experimental animals were adapted to the animal environment for 7 days. Day 0, the rats were anesthetized, the hair around the left knee joint was removed, and the skin was disinfected. The left leg was flexed 90° to expose the patellar platform. The depression in the middle of the platform was touched by hand to find the femoral condyle, patella and ligament. The syringe needle was inserted from the bottom of the patella on both sides of the patellar ligament to the direction of the femoral condyle. When a clear sense of empty space was felt, 50µL of iodoacetic acid solution was injected. Day 7 Grouping was performed according to the width of the knee joint on the induced side. The groups were: normal control group (healthy control without modeling, 5% DMSO+10% Solutol+85% Saline), model blank control group (5% DMSO+10% Solutol+85% Saline), MCC950 30mg/kg, and compound 111 of the present invention 30mg/kg. Starting from Day 7, the normal control group and the model blank control group were given the solvent (5% DMSO+10% Solutol+85% Saline) orally once a day, and the other groups were given the corresponding compounds orally once a day until the end of the administration on Day 42. The knee joint width and body weight of the rats were measured once on Day 7, 14, 21, 28, 35, and 42. This experiment tested the efficacy of MCC950 (Positive compound) and compound 111 of the present invention on the SD rat knee osteoarthritis model induced by iodoacetic acid (MIA), see Figures 1 and 2.
`CC(=O)N1CCOC[C@H]1CNc1nc2nc(-c3c(C)cc(C(F)(F)F)cc3O)ccc2o1` [Compound 111]: the “body weight of the rats” value is reported as “without affecting the body weight of the rats”.

Still in this data set, the particulars now being: 30mg/kg orally once a day from Day 7 to Day 42; compared with the model blank control group, 21 days to 42 days after modeling.
Consider `CC(=O)N1CCOC[C@H]1CNc1nc2nc(-c3c(C)cc(C(F)(F)F)cc3O)ccc2o1` [Compound 111], for which the “widening of the knee joints” value was “significantly inhibit the widening of the knee joints”.

With `CC(C)(O)c1coc(S(=O)(=O)NC(=O)Nc2c3c(cc4c2CCC4)CCC3)c1` [MCC950, reference compound], the “widening of the knee joints” value is on record as “significantly inhibit the widening of the knee joints”.

System in a further data set: not listed separately
Put plainly: Liver microsome metabolic stability, human. It counts as in vitro ADME, humans. To be noted: human (h) liver microsomes 0.5 mg/ml, 45 min; read-out: LMS (h,r,m) (% rem, 45 min). Here is the method:
as §1, §2, §3, §4, §5, §6
In the case of `CC(=O)N1CCOC[C@H]1CNc1nc2nc(-c3c(C)cc(C(F)(F)F)cc3O)ccc2o1` [Compound 111], the remaining at 0.75 h, 1 µM came out at 93.2%.
